The subject of data set [1] is rabbit platelet rich plasma. As to the kind of experiment: Platelet aggregation in platelet rich plasma, platelet aggregometer (technique of Born). In kind it is cell-based. The settings on record: platelet rich plasma from rabbit. On the procedure:
(§1) Platelet rich plasma from rabbit and men was prepared by the centrugation technique referenced in Example 13. Using ADP (adosine diphosphate) as a stimulus rapid aggregation of platelets occurred. […] This procedure is described in the article by Born in Nature, Vol. 194, pgs. 927-929 (1962).
(§2) Platelet rich plasma from rabbits and men was prepared by the centrugation technique referenced in Example 13. Using ADP (adosine diphosphate) arachidonic acid as a stimulus, rapid aggregation of platelets occurred. […] This procedure is described in the article by Born, Nature, Vol. 194, pgs. 927-929 (1962).

Data set [2] deals with human platelet rich plasma. The data set is described as above. The data set is classed as cell-based. The settings on record: platelet rich plasma from men.
Source text: A present preference for purposes of evaluating an - antithrombotic effect is to withdraw samples of blood from a patient undergoing treatment and to measure platelet aggregation. One method is described in the paper by Born in Nature 194, pp. 927-929 (1962), which may be used for this purpose if desired.
That sodium bisulfite is an antiplatelet aggregatory agent is shown by using a platelet aggregometer based on the technique of Born (above cited).
as §1, §2

A further data set concerns thrombus. The data set can be described thus: Antithrombotic effect in rabbit (Kelton et al). In kind it is in vivo. To be noted: 50 mg/kg. From the text: Evaluation of the antithrombotic effect of sodium formaldehyde bisulfite was caried out on a rabbit as described in Kelton et al: "Thrombogenic Effect of High Dose Aspirin in Rabbits", Journal of Clinical Investigation", Volume 62, pages 892-895, 1978.

Data set [3] relates to human plasma. The data set is classed as biochemical.
The subject of data set [4] is thrombus formation in the jugular vein. As to the kind of experiment: I 125 fibrinogen technique, damaged jugular vein (venous thrombosis), continuous infusion. The data set is classed as in vivo, rabbits. On the procedure:
The anti venous thrombotic effect of sodium bisulfite is evaluated in rabbits by using I ^125 fibrinogen technique as described in an article in "Archives of Surgery" Vol. 104, pg. 152 (1972).
The rabbit was continuously infused with aqueous sodium bisulfite solution at the rate of […]. (5.154 gram per hour) (animal body weight 2.3 kg) for a time of five hours. After 5 hours, the animal was sacrificed and the radioactive fibrinogen accumulated in the damaged jugular vein was determined. The radioactivity on the contra-lateral (undamaged) jugular vein was also determined to serve as a control. Concurrently, another rabbit had experienced the same procedure but received only a standard sodium chloride solution as a control. The rabbit from the normal saline solution has seven times as much radioactivity as his counterpart infused with sodium bisulfite.
Two jugular veins on a normal, healthy rabbit are exposed and one of the veins is systematically damaged by clamping in two longitudinally spaced places. The rabbit is then continuously infused with aqueous sodium formaldehyde bisulfite at the rate of […] (5.154 gram per hour) (animal body weight 2.3 kg). The rabbit is then injected with fibrinogen labeled with I^125. After 5 hours, the damaged jugular vein is evaluated for radioacive count with a Geiger counter.
This iodine 125 evaluation technique is described by Kakkar in Archieves of Surgery, Vol. 104, pg. 152 (1972) and by Kelton, J.G. et al, Journal of Clinical Investigation, Vol. 62, pgs. 892-895, (1978). […] Other rabbits, similarly evaluated, died, apparently because of overdose by the infustion technique.

Data set [5] relates to human plasma. In kind it is biochemical. The source holds these as a separate data set.
For a further data set, the system named is platelet rich plasma. As to the kind of experiment: Platelet aggregation in platelet rich plasma from injected rabbit (ex vivo). The settings on record: injected with about 72 mg/kg of body weight; blood sample after 5 hours. On the procedure: A rabbit is injected with about +72 mg/kg of body weight of triethyl amine bisulfite. After a period of 5 hours, a blood sample was withdrawn and centrifuged at 1000 r.p.m. (220 g) for 10 minutes to give a platelet rich plasma. […] It is concluded that triethyl amine bisulfite is an agent which inhibits thrombotic condition formation in vivo.
A rabbit is injected with about 72 mg/kg of body weight of sodium formaldehyde bisulfite. After a period of 5 hours, a blood sample was withdrawn and centrifuged at 1000 r.p.m. (220 g) for 10 minuts to give a platelet rich plasma. […] It is concluded that sodium formaldehyde bisulfite is an agent which inhibits thrombus formation in vivo.

For a further data set, the system named is blood. The data set can be described thus: PT and PTT of blood after oral gavage. The data set is classed as in vivo, rabbit. To be noted: orally by gavage about 50 mg/kg in two spaced doses (solution of Example X); after 1 day.
[6] abbreviates: continuous infusion for five hours.

Like-named read-outs stand apart in the source and are kept apart here.

`O=S(=O)(O)CO` [Sodium formaldehyde bisulfite]: the “platelet aggregation, ADP (adosine diphosphate) as a stimulus” value in data set [1] and in data set [2] was “strong inhibition of platelet aggregation” in each case. Further, the “disappearance of the thrombus compared with a control animal” value in the data set on thrombus was “the thrombus disappeared more rapidly”. For the same compound, the “PTT” value was 56.30 s with human plasma [3] (0.5 mg/ml, two different days, control 42.6 / 42.10); 54.6 with human plasma [3] (0.01 Molar, control 33.4); 58.60 s in the data set on human plasma [3] (coded agents 0.5mg/ml, […], control 43.38). The “PTT REPLICATIONS I” value with human plasma [3] (control 38.2 (50.5 for Sodium formaldehyde Bisulfite)) is 63.5. Besides, the “PTT (effect in words)” value in the data set on human plasma [3] (in vitro, 0.5 mg/ml) is recorded as “effective”. In addition, in data set [4] (continuous infusion), the “mortality of infused rabbits” value is “died”. Besides, the “radioactivity (I 125 fibrinogen) in damaged jugular vein of saline control rabbit relative to treated rabbit” value in data set [4] (setting [6]) is given as “more radioactivity”. In addition, the “thrombus formation in the jugular vein (conclusion in words)” value in data set [4] (setting [6]) was “definite positive effect of decreasing thrombus formation”. The “PT” value in the data set on human plasma [5] came to 19.68 s; with human plasma [5] (0.01 Molar, control 12.5), 24.4; with human plasma [5] (coded agents 0.5mg/ml, […], control 12.92), 19.50 s. Besides, in the data set with human plasma [5] (control 13.1 (14.1 for Sodium formaldehyde Bisulfite)), the “PT REPLICATIONS I” value is 20.5. For the same compound, in the data set with human plasma [5] (in vitro, 0.5 mg/ml), the “PT (effect in words)” value is “effective”. Moreover, the “aggregation of platelets in comparison with an untreated rabbit” value in the data set on platelet rich plasma was “markedly decreased”. The “PT and PTT values of the animal's blood compared with untreated control rabbit” value with blood is recorded as “lengthened”.

The values are drawn from patent publication EP0043274A2, “Antithrombotic treatment” (priority 1980, dated 1982).
